# Laboratory results: patent US20090022803A1, “Oral Formulations For Delivery of Catecholic Butanes Including Ndga Compounds” (priority 2005, published 2009)
# Assays:
# [1] = Oral fed/fasted IV/oral pharmacokinetic comparison of M4N formulations, single 75 mg/kg dose; conditions: dogs, single 75 mg/kg oral or IV
# [2] = Absorption of M4N in beagle dogs upon oral administration of solid formulations in capsules, serum LC/MS/MS; assay type: in vivo; conditions: oral single 100 mg/kg
# Description: Five groups of dogs (n=2 per group, one male and one female) (age=approximately 6-9 months old) were exposed to a single 100 mg/kg dose of M4N in excipient to determine the optimal oral solid excipient. The composition of M4N in excipient was encapsulated in size 12 hard gelatin capsules prior to oral administration. The animals were fasted overnight prior to dosing. The excipients/formulations tested are set forth in Table 19 and were: (a) no excipient, where M4N was encapsulated; (b) HP-β-CD; (c) TPGS; (d) soybean oil+beeswax; and (e) olive oil+beeswax. Blood was collected from each animal via the jugular vein at the following time points: predose, 0.5 hr, 1 hr, 1.5 hr, 2 hr, 4 hr, 6 hr and 8 hr post dosing. Concentrations of M4N in serum were determined by Liquid Chromatography combined with tandem Mass Spectroscopy (LC/MS/MS).
# [3] = Oral (gavage) repeated dose pharmacokinetic study of M4N in ten excipient formulations; conditions: rat, in vivo, 500 mg/kg
# Description: The purpose of this study was to provide information on pharmacokinetics of a 500 mg/kg dose of M4N in ten different excipient formulations. […] Crl:(CD)SD male and female rats were assigned to ten dosage groups, five rats per sex per group. Samples were prepared having carriers as follows that were administered to the following groups of subjects:
# Each formulation of M4N was administered orally via gavage on three occasions. The concentration of the M4N was 60 mg/mL administered at a dosage volume 8.33 mL/kg, based on the most recent body weight. The rats were given the first dose (day 1 of study) after being fasted overnight followed by a 72 hour washout (recovery) period. On day 5 of study (DS 5), the second dose of test article was administered to non-fasted rats followed by a one week washout (recovery) period. On DS 6, the rats were placed on a high fat diet (approximately 10% fat content versus approximately 5% in a standard diet). […] These observations were also recorded once daily on non dosing days and during the post dosage period. Body weights were recorded at least weekly during the acclimation period, daily during the dosage and at sacrifice terminal weight. Feed consumption values were recorded weekly during the dosage period and at sacrifice (feed left value). […] The time of each blood collection was recorded in the raw data. […]
# [4] = 40 mg/mL M4N/PEG 300 stability, RP-HPLC analysis; assay type: physicochemical; conditions: for M4N: 40 mg/mL M4N/PEG 300
# Description: The stability of 40 mg/mL M4N dissolved in 100% PEG 300 was evaluated up to 24 hours incubation at 30° C., 45° C. and 60° C. A stock 40 mg/mL M4N in PEG 300 was prepared at 60° C., following the procedure set forth in Example 18. Subsequently, aliquots were removed and incubated at the appropriate temperature. Samples were rotated at 450 rpm during the entire course of incubation. Visual observations and RP-HPLC data were collected throughout. […] The formation of crystals coincided with a loss of soluble M4N (Table 30). The 40 mg/mL M4N/PEG 300 samples incubated at 45° C. and 60° C. were stable after 24 hours incubation as assessed by visual observations and RP-HPLC analysis (Tables 29 and 30).
structure (smiles),measurement,setting,value
"COc1ccc(C[C@@H](C)[C@@H](C)Cc2ccc(OC)c(OC)c2)cc1OC [Formulation M4N, meso-1,4-bis(3,4-dimethoxyphenyl)-2,3-dimethylbutane]",survival,[1],All animals survived
same,"Absorption, ranking between formulations",[2]; Lyophilized HP-β-CD (81%)+M4N (185 mg/g),higher than that containing TPGS
same,"Absorption, ranking between formulations",[2]; TPGS (20%)+M4N (133 mg/g),higher than that containing soybean oil+beeswax
same,"Absorption, ranking between formulations",[2]; olive oil (95%)+beeswax (5%)+M4N (200 mg/g),highest
same,"Absorption, ranking between formulations",[2]; soybean oil (95%)+beeswax (5%)+M4N (200 mg/g),higher than M4N without an excipient
same,Blood levels on high fat diet versus standard diet or fasting,[3],always higher
same,amount or types of impurities peaks,"[4]; 40 mg/mL M4N/PEG 300, 30° C., 45° C. and 60° C.",No changes
same,stability by visual observations and RP-HPLC analysis,"[4]; 40 mg/mL M4N/PEG 300, 24 hours at 45° C.",stable
same,stability by visual observations and RP-HPLC analysis,"[4]; 40 mg/mL M4N/PEG 300, 24 hours at 60° C.",stable
same,M4N,"[4]; 30° C., 0 hours",39.5 mg/mL
same,M4N,"[4]; 30° C., 2 hours",40.8 mg/mL
same,M4N,"[4]; 30° C., 6 hours",40.6 mg/mL
same,M4N,"[4]; 30° C., 24 hours",37.4 mg/mL
same,M4N,"[4]; 45° C., 2 hours",40.4 mg/mL
same,M4N,"[4]; 45° C., 6 hours",39.8 mg/mL
same,M4N,"[4]; 45° C., 24 hours",40.6 mg/mL
same,M4N,"[4]; 60° C., 2 hours",39.1 mg/mL
same,M4N,"[4]; 60° C., 6 hours",39.2 mg/mL
same,M4N,"[4]; 60° C., 24 hours",39.2 mg/mL
